The text below walks through data of patent US7901713B2, “Inhibition of COX-2 and/or 5-LOX activity by fractions isolated or derived from hops” (Metaproteomics, LLC, priority 2001, dated 2011).

For experiment [1] the following is noted: clinical trials; cited from earlier work.
The subject of a further experiment is Jurkat cells. Kind of experiment: Antioxidant activity, DCFH-DA oxidative stress model (H2O2 + LPS) in Jurkat cells. The format is cell-based. As to conditions: Homo sapiens, 1000 μM H2O2 + 1 μg/mL LPS, highest concentration tested 50 μg/mL, parenthetic 95% confidence limits. The procedure:
Chemicals and reagents—Bacterial lipopolysaccharide (LPS; B E. coli 055:B5) was from Sigma (St. […] (Eugene, Oreg.); DCFH-DA was dissolved in dimethyl sulfoxide (DMSO) as a stock solution and kept frozen at −20° C. […] Positive control compounds included caffeic acid and Trolox obtained from Sigma (St. Louis, Mo.) and were of the highest purity commercially available. […] Unless otherwise noted, all standard reagents were obtained from Sigma and were the purest commercially available. […] Excess DCFH-DA was removed by centrifuging the cells for 10 minutes and resuspending them in the original growth medium. Cells were plated in microtiter wells at a concentration of approximately 10^6 cells per well. […] Fluorescence for each well was captured, digitized and stored on a computer using Cytofluor (Version 4.0). Measurements of fluorescence were made every ten minutes for 60 minutes. The change in DCF fluorescence is presented relative to the LPS-stimulated Jurkat cells alone; […] […] Antioxidant activity of the test materials—Oxidative stress was measured in cells using DCFH-DA in a microtiter plate assay as previously described [Wang, H. and Joseph, J. A. (1999) Quantifying cellular oxidative stress by dichlorofluorescein assay using microplate reader. […] Thus, the assay can be used to quantify overall oxidative stress in cells. […] Cm is determined from the x-intercept of the median-effect plot. […]

The next experiment has as its system RAW 264.7 cells. Put plainly: Antioxidant activity, DCFH-DA oxidative stress model (H2O2 + LPS) in RAW 264.7 cells. As to conditions: Mus musculus, RAW264.7; 1000 μM H2O2 + 1 μg/mL LPS; highest concentration tested 50 μg/mL; parenthetic 95% confidence limits. Type of experiment: cell-based, murine.

For the compound `CC(=O)Oc1ccccc1C(=O)O` [Aspirin, acetylsalicylic acid], the “reduction of primary and secondary incidence of myocardial infarction and other CVDs” value in experiment [1] is recorded as “approximately 25%”.

As to `O=C(O)/C=C/c1ccc(O)c(O)c1` [Caffeic acid, caffeic acid], the IC50 in the experiment on Jurkat cells was found to be 3.2 µg/mL; in the experiment with RAW 264.7 cells, 3.3 µg/mL.

Regarding `Cc1c(C)c2c(c(C)c1O)CCC(C)(C(=O)O)O2` (stereo not shown) [Trolox], the IC50 with Jurkat cells was 5.4 µg/mL.

The term IC50 denotes the point on the concentration scale where inhibition reaches its midpoint.
